Data from article PMC7151638, “Investigation of a thermostable multi-domain xylanase-glucuronoyl esterase enzyme from Caldicellulosiruptor kristjanssonii incorporating multiple carbohydrate-binding modules” (Biotechnology for Biofuels, 2020).

Target: T1, CkGE15A (Caldicellulosiruptor acetigenus, UniProt E4S6E9)
T1 construct: gene Calkr_2245; CE15 glucuronoyl esterase domain only, cut from the 191-kDa multidomain protein (CBM22-CBM22-GH10-CBM9-CBM9-CBM9-CE15-cadherin-SLH-SLH); modified pET-28a with TEV site, E. coli BL21, Ni IMAC
T1 sequence (E4S6E9 1270-1690 limits assumed): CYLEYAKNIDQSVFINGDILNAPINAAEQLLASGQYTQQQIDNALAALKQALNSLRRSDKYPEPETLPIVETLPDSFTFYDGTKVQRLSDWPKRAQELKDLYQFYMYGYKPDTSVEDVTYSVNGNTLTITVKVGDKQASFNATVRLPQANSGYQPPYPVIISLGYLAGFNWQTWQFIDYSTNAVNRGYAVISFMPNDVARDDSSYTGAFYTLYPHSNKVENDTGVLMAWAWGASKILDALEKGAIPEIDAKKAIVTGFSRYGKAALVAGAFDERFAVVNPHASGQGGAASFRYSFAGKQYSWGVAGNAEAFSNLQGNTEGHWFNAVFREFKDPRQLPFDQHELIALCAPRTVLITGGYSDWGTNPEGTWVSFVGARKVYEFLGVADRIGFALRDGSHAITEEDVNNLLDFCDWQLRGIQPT
Assay: continuous coupled assay of uronic acid release (K-URONIC kit, NADH at […] nm)
Assay type: biochemical
Conditions: 22 °C; pH 7.5; printed as 'Cannot be saturated up to 40 mM'

| Compound | Km [mM] |
| --- | --- |
| COC(=O)[C@H]1OC(O)[C@H](O)[C@@H](O)[C@@H]1O (stereo partly drawn) [MeGlcA, Methyl-D-glucuronoate] | > 40 |
| C=CCOC(=O)[C@H]1OC(O)[C@H](O)[C@@H](O)[C@@H]1O (stereo partly drawn) [AllGlcA, Allyl-D-glucuronoate] | > 40 |
